Measurements from patent publication US12077503B2, “Substituted cyclic amides and their use as herbicides” (FMC CORPORATION, priority 2015, dated 2024).
Where two headings read alike, the source gives them in different places.

How the values were obtained:
Experiment in all cases: Test A postemergence
Type in all cases: in vivo
[1] = system: Galium (catchweed bedstraw, Galium aparine); conditions: Galium, post-emergence, 240 h; for pest or weed control at 125 g/ha: 125 g ai/ha; for pest or weed control at 500 g/ha: 500 g ai/ha
Method in brief: (§1)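 Seeded soil received test chemicals as a preemergence directed spray, and seedlings at one to two leaves, 2–10 cm tall, received them postemergence, in a non-phytotoxic, surfactant-containing solvent mixture. Pots were held in a greenhouse for approximately 10 d, then rated for injury from 0, no effect, to 100, complete control.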

[2] = system: Kochia (Kochia scoparia); conditions: Bassia scoparia, post-emergence, 240 h; for pest or weed control at 125 g/ha: 125 g ai/ha; for pest or weed control at 500 g/ha: 500 g ai/ha
Method in brief: as §1

[3] = system: barnyardgrass (Echinochloa crus-galli); conditions: Echinochloa crus-galli, post-emergence, 240 h; for pest or weed control at 125 g/ha: 125 g ai/ha; for pest or weed control at 500 g/ha: 500 g ai/ha
Method in brief: as §1

[4] = system: blackgrass (Alopecurus myosuroides); conditions: Alopecurus myosuroides, post-emergence, 240 h; for pest or weed control at 125 g/ha: 125 g ai/ha; for pest or weed control at 500 g/ha: 500 g ai/ha
Method in brief: as §1

[5] = system: corn (Zea mays); conditions: Zea mays, post-emergence, 240 h; for Corn plant response rating (crop injury, 0 = no effect, 100 = complete kill) at 125 g/ha / plant injury at 125 g/ha: 125 g ai/ha; for Corn plant response rating (crop injury, 0 = no effect, 100 = complete kill) at 125 g/ha: Postemergence, visual injury after approximately 10 d, 0 to 100 scale where 0 is no effect and 100 is complete control; for plant injury at 125 g/ha / Corn plant response rating (crop injury, 0 = no effect, 100 = complete kill) at 500 g/ha / plant injury at 500 g/ha: postemergence; for Corn plant response rating (crop injury, 0 = no effect, 100 = complete kill) at 500 g/ha / plant injury at 500 g/ha: 500 g ai/ha; for Corn plant response rating (crop injury, 0 = no effect, 100 = complete kill) at 500 g/ha: visual injury, 0 to 100 scale (0 no effect, 100 complete control); for plant injury at 500 g/ha: 0 to 100 scale, 0 is no effect, 100 is complete control
Method in brief: as §1

[6] = system: pigweed (Amaranthus retroflexus); conditions: Amaranthus retroflexus, post-emergence, 240 h; for pest or weed control at 125 g/ha: 125 g ai/ha; for pest or weed control at 500 g/ha: 500 g ai/ha, 0 to 100 scale, 0 is no effect, 100 is complete control
Method in brief: as §1

[7] = Postemergence, visual injury after approximately 10 d, 0 to 100 scale where 0 is no effect and 100 is complete control, read-out: Plant response rating, Galium
[8] = Postemergence, visual injury after approximately 10 d, 0 to 100 scale where 0 is no effect and 100 is complete control, read-out: Plant response rating, Kochia
[9] = Postemergence, visual injury after approximately 10 d, 0 to 100 scale where 0 is no effect and 100 is complete control, read-out: Plant response rating, Barnyardgrass
[10] = Postemergence, visual injury after approximately 10 d, 0 to 100 scale where 0 is no effect and 100 is complete control, read-out: Plant response rating, Blackgrass
[11] = Postemergence, visual injury after approximately 10 d, 0 to 100 scale where 0 is no effect and 100 is complete control, read-out: Plant response rating, Pigweed
[12] = postemergence, visual injury on 0 to 100 scale (0 no effect, 100 complete control), approx. 10 d, read-out: Galium plant response rating
[13] = postemergence, visual injury, 0 to 100 scale (0 no effect, 100 complete control), approx. 10 d, read-out: Plant response rating, Galium
[14] = postemergence, visual injury on 0 to 100 scale (0 no effect, 100 complete control), approx. 10 d, read-out: Kochia plant response rating
[15] = postemergence, visual injury, 0 to 100 scale (0 no effect, 100 complete control), approx. 10 d, read-out: Plant response rating, Kochia
[16] = postemergence, visual injury on 0 to 100 scale (0 no effect, 100 complete control), approx. 10 d, read-out: Barnyardgrass plant response rating
[17] = postemergence, visual injury, 0 to 100 scale (0 no effect, 100 complete control), approx. 10 d, read-out: Plant response rating, Barnyardgrass
[18] = postemergence, visual injury on 0 to 100 scale (0 no effect, 100 complete control), approx. 10 d, read-out: Blackgrass plant response rating
[19] = postemergence, visual injury, 0 to 100 scale (0 no effect, 100 complete control), approx. 10 d, read-out: Plant response rating, Blackgrass
[20] = visual injury on 0 to 100 scale (0 no effect, 100 complete control), approx. 10 d, read-out: Corn plant response rating
[21] = postemergence, visual injury on 0 to 100 scale (0 no effect, 100 complete control), approx. 10 d, read-out: Pigweed plant response rating
[22] = postemergence, 0 to 100 scale, 0 is no effect, 100 is complete control, read-out: Galium plant response rating
[23] = postemergence, 0 to 100 scale, 0 is no effect, 100 is complete control, read-out: Kochia plant response rating
[24] = postemergence, 0 to 100 scale, 0 is no effect, 100 is complete control, read-out: Barnyardgrass plant response rating
[25] = postemergence, 0 to 100 scale, 0 is no effect, 100 is complete control, read-out: Blackgrass plant response rating
[26] = read-out: Corn plant response rating
[27] = postemergence, read-out: Pigweed plant response rating
[28] = postemergence, visual injury rating after approximately 10 d, read-out: Galium plant response rating (0 to 100 scale, 0 no effect, 100 complete control)
[29] = postemergence, visual injury rating after approximately 10 d, read-out: Kochia plant response rating (0 to 100 scale, 0 no effect, 100 complete control)
[30] = postemergence, visual injury rating after approximately 10 d, read-out: Barnyardgrass plant response rating (0 to 100 scale, 0 no effect, 100 complete control)
[31] = visual injury rating after approximately 10 d, read-out: Corn plant response rating (0 to 100 scale, 0 no effect, 100 complete control)
[32] = postemergence, visual injury rating after approximately 10 d, read-out: Pigweed plant response rating (0 to 100 scale, 0 no effect, 100 complete control)

Compound	pest or weed control at 125 g/ha [1, 7] [%]	pest or weed control at 125 g/ha [2, 8] [%]	pest or weed control at 125 g/ha [3, 9] [%]	pest or weed control at 125 g/ha [4, 10] [%]	Corn plant response rating (crop injury, 0 = no effect, 100 = complete kill) at 125 g/ha [5] [%]	pest or weed control at 125 g/ha [6, 11] [%]	pest or weed control at 125 g/ha [1, 12] [%]	pest or weed control at 125 g/ha [2, 14] [%]	pest or weed control at 125 g/ha [3, 16] [%]	pest or weed control at 125 g/ha [4, 18] [%]	plant injury at 125 g/ha [5, 20] [%]	pest or weed control at 125 g/ha [6, 21] [%]	also measured
Cc1ccc([C@H]2CNC(=S)[C@@H]2C(=O)Nc2ccccc2F)cc1 (racemic) [Compound 945]	20	0	80	0	0	0							
Cc1ccc([C@H]2CNC(=S)[C@@H]2C(=O)Nc2cccc(F)c2F)cc1 (racemic) [Compound 946]	0	0	60	0	0	0							
O=C(Nc1cccc(F)c1F)[C@H]1C(=S)NC[C@@H]1c1ccc(C(F)(F)F)cc1 (racemic) [Compound 1048]							0	30	50	20	20	30	pest or weed control at 500 g/ha [1, 13]: 60%; pest or weed control at 500 g/ha [2, 15]: 60%; pest or weed control at 500 g/ha [3, 17]: 80%; pest or weed control at 500 g/ha [4, 19]: 30%; Corn plant response rating (crop injury, 0 = no effect, 100 = complete kill) at 500 g/ha ([5]; approx. 10 d): 40%
O=C(Nc1ccccc1C(F)(F)F)[C@H]1C(=S)NC[C@@H]1c1ccc(C(F)(F)F)cc1 (racemic) [Compound 1049]							0	0	30	0	0	10	pest or weed control at 500 g/ha [1, 13]: 40%; pest or weed control at 500 g/ha [2, 15]: 30%; pest or weed control at 500 g/ha [3, 17]: 50%; pest or weed control at 500 g/ha [4, 19]: 0%; Corn plant response rating (crop injury, 0 = no effect, 100 = complete kill) at 500 g/ha ([5]; approx. 10 d): 0%
Cc1ccc([C@H]2CN(C)C(=O)[C@]2(O)C(=O)Nc2cccc(F)c2F)cc1 (racemic) [Compound 1059]							0	0	40	0	0	0	pest or weed control at 500 g/ha [1, 22]: 0%; pest or weed control at 500 g/ha [2, 23]: 0%; pest or weed control at 500 g/ha [3, 24]: 90%; pest or weed control at 500 g/ha [4, 25]: 0%; plant injury at 500 g/ha [5, 26]: 20%; pest or weed control at 500 g/ha [6, 27]: 0%
CN1C[C@H](c2ccc(C(F)(F)F)cc2)[C@](F)(C(=O)Nc2cccc(F)c2F)C1=O (racemic) [Compound 1152]							0	0	0	0	0		pest or weed control at 500 g/ha [1, 22]: 20%; pest or weed control at 500 g/ha [2, 23]: 0%; pest or weed control at 500 g/ha [3, 24]: 0%; pest or weed control at 500 g/ha [4, 25]: 0%; plant injury at 500 g/ha [5, 26]: 0%; pest or weed control at 125 g/ha ([6]; postemergence, visual injury vs untreated controls after approx. 10 d, 0 = no effect, 100 = complete control, read-out: Pigweed plant response rating (0 to 100 scale)): 0%; pest or weed control at 500 g/ha [6, 27]: 0%
O=C1NC[C@H](c2cc(F)c(C(F)(F)F)c(F)c2)[C@H]1C(=O)Nc1ccccc1F [Compound 837]													pest or weed control at 125 g/ha [1, 28]: 50%; pest or weed control at 125 g/ha [2, 29]: 20%; pest or weed control at 125 g/ha [3, 30]: 90%; plant injury at 125 g/ha [5, 31]: 60%; pest or weed control at 125 g/ha [6, 32]: 30%
O=C1NC[C@H](c2cc(F)c(C(F)(F)F)c(F)c2)[C@H]1C(=O)Nc1cccc(F)c1F [Compound 838]													pest or weed control at 125 g/ha [1, 28]: 50%; pest or weed control at 125 g/ha [2, 29]: 70%; pest or weed control at 125 g/ha [3, 30]: 90%; plant injury at 125 g/ha [5, 31]: 70%; pest or weed control at 125 g/ha [6, 32]: 80%
CSc1ccccc1NC(=O)[C@H]1C(=O)NC[C@@H]1c1cc(F)cc(Cl)c1 [Compound 977]	40	70		0	0	30							
CN1C[C@H](c2cc(F)cc(Cl)c2)[C@@H](C(=O)Nc2ccccc2S(C)(=O)=O)C1=O [Compound 979]	40	30		60	30	40							
COc1ccc([C@H]2CN(C)C(=O)[C@@H]2C(=O)Nc2ccccc2SC)cc1C(F)(F)F [Compound 991]	0		30	0	0	0							
CN1C[C@H](c2cc(F)cc(F)c2)[C@@H](C(=O)Nc2cc(O)ccc2F)C1=O [Compound 992]	0		0	0	0	0							
Cc1cc([C@H]2CNC(=O)[C@@H]2C(=O)Nc2ccccc2Cl)ccc1C(F)(F)F [Compound 1044]							40	0	70		0	30	pest or weed control at 500 g/ha [1, 13]: 60%; pest or weed control at 500 g/ha [2, 15]: 50%; pest or weed control at 500 g/ha [3, 17]: 80%; Corn plant response rating (crop injury, 0 = no effect, 100 = complete kill) at 500 g/ha ([5]; approx. 10 d): 50%
